# Article PMC12582325 (Proceedings of the National Academy of Sciences of the …, 2025)
# Several values for one entry are separate records, joined by “and”; a condition that tells them apart may be missing. Equal entries are not always repeated. Where two headings read alike, the source gives them in different places. Where a SMILES comes first, the peptide text is derived from it.
# Tests used:
# [1] = tested on: Bb.Ste2; format: cell-based, Beauveria bassiana
# [2] = tested on: Fo.Ste2; format: cell-based, Fusarium oxysporum
# [3] = tested on: Bc.Ste2; format: cell-based, Botrytis cinerea
# [4] = tested on: Hj.Hpr2; format: cell-based, Hypocrea jecorina
# [5] = tested on: Fo.Ste2; format: cell-based, Fusarium oxysporum; remark: listed apart in the source
# [6] = tested on: no_GPCR (negative control lacking a GPCR); format: cell-based, Saccharomyces cerevisiae; conditions: SC-AS/Urea compared to SC media with ammonium sulfate alone
# [7] = tested on: Fg.Ste2; conditions: SC-AS/Urea compared to SC media with ammonium sulfate alone
# [8] = tested on: Bb.Ste2; format: cell-based, Beauveria bassiana; remark: listed apart in the source
# [9] = tested on: Fo.Ste2; format: cell-based, Fusarium oxysporum; remark: listed apart in the source
# [10] = tested on: Nc Ste2 GPCR; format: cell-based, Neurospora crassa
# [11] = tested on: Mo Ste2 GPCR; format: cell-based, Magnaporthe oryzae
# [12] = tested on: Ca.Ste2; format: cell-based, Candida albicans
# [13] = tested on: Bb.Ste2; format: cell-based, Beauveria bassiana; remark: listed apart in the source
# [14] = tested on: empty (strain lacking a GPCR); format: cell-based, Saccharomyces cerevisiae
# [15] = tested on: Bc.Ste2; format: cell-based, Botrytis cinerea; remark: listed apart in the source
# [16] = tested on: Fg.Ste2; format: cell-based, Fusarium graminearum
# [17] = tested on: Hj Ste2 GPCR (Hj.Hpr2); format: cell-based, Hypocrea jecorina
# [18] = biological target: T1, Sc Ste2 (Saccharomyces cerevisiae, UniProt D6VTK4); format: cell-based
# T1 construct: The native Sc system and an empty construct were added as positive and negative controls; endogenous in cells; host or cells: Saccharomyces cerevisiae wild-type control strains GEN18 (MATa) and GEN27 (MATα)
# T1 sequence (D6VTK4 1-431): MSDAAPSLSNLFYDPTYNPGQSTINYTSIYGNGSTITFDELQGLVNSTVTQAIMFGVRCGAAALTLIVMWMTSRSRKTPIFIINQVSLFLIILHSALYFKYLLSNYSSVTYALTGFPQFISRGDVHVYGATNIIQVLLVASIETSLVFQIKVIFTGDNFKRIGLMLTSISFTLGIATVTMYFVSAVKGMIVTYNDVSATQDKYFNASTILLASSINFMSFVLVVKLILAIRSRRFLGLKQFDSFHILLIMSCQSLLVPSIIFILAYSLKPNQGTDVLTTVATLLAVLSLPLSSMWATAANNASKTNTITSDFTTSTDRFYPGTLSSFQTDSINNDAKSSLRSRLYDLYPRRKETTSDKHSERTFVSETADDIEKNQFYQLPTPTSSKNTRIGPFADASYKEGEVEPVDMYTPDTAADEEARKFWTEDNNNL
# [19] = tested on: Fg.Ste2; format: cell-based, Fusarium graminearum; remark: listed apart in the source
# [20] = tested on: F. oxysporum microconidia; assay: Germination of F. oxysporum microconidia; format: cell-based, Fusarium oxysporum f. sp. lycopersici 4287; set-up: Germination of F. oxysporum microconidia (data of Sup.Fig.10): unit not given here; conditions: for Germination of F. oxysporum microconidia (data of Sup.Fig.10): 400 μM pheromone, 13 h, at least 300 spores counted
# Experimental: For F. oxysporum microconidia production, the strain was grown for 3 to 4 d in liquid potato dextrose broth (PDB) at 28 °C and 170 rpm. Germination media ([10]) was used for assessing the spore germination. RE was prepared by removing 2-wk-old tomato plants from vermiculite and washing the roots to remove any adhering substrates ([11]).
# Supplementary Figure 10. Germination of F. oxysporum microconidia after 13 h of incubation in Germination Media at a cell density of […] microconidia/mL. The assay was performed with 400 μM of pheromone. All points represent the average of three biological replicates in which at least 300 spores were counted. Statistical significance was determined through one-way analysis of variance (ANOVA) with Dunnett’s multiple comparisons (✱p ≤ 0.05).
# [21] = tested on: Bc.Ste2; format: cell-based, Botrytis cinerea; conditions: 0.0005 μM Bc pheromone in combination with 10 μM peptide; four biological replicates; Fig. 2G
# [22] = tested on: B. bassiana; format: cell-based, Beauveria bassiana; conditions: 20 hours
# [23] = tested on: F. oxysporum germ tubes; conditions: gradient of 400 μM pheromone against the solvent (50% methanol); 13 h; water-agar; three biological replicates; Fig. 5A
# Experimental: For the B. bassiana and F. oxysporum chemotropism assay and plant infection assays the pheromones were dissolved in 50% (v/v) MeOH to reach a concentration of 4,000 μM.
# Fungal chemotropism was conducted as previously described ([11]). For each compound or combination of compounds tested, 300 hyphal tips were scored. All experiments were performed in three biological replicates.
# [24] = Fig. 1D mating matrix, pheromone secreted by MATa strain, GPCR in MATα strain, deep well plate, 20 h coculture, three technical plating replicates
# [25] = Fig. 1D mating matrix, pheromone secreted by MATa strain, MATα strain lacking a GPCR (empty), deep well plate, 20 h coculture
molecule,measurement,setting,value
CC(C)C[C@H](NC(=O)[C@H](CS)NC(=O)[C@@H](N)Cc1c[nH]c2ccccc12)C(=O)N[C@@H](CCCNC(=N)N)C(=O)N[C@H](C(=O)NCC(=O)N[C@@H](CCC(N)=O)C(=O)N1CCC[C@H]1C(=O)N[C@@H](CS)C(=O)N[C@@H](Cc1c[nH]c2ccccc12)C(=O)O)C(C)C [A1] (H-WCLRVGQPCW-OH; N-terminus and C-terminus assumed),logEC50,[1],-9.317
NCCCC[C@H](NC(=O)[C@H](CO)NC(=O)CNC(=O)[C@H](CS)NC(=O)[C@@H](N)Cc1c[nH]c2ccccc12)C(=O)NCC(=O)N[C@@H](CCC(N)=O)C(=O)N1CCC[C@H]1C(=O)N[C@@H](CS)C(=O)N[C@@H](Cc1c[nH]c2ccccc12)C(=O)O [A2] (H-WCGSKGQPCW-OH; N-terminus and C-terminus assumed),"Activation of Bb.Ste2 biosensor, in words",[1],higher EC50 values
same,Hillslope,[1],1.362
same,logEC50,[1],-3.661
CC(C)C[C@H](NC(=O)[C@H](CS)NC(=O)[C@@H](N)Cc1c[nH]c2ccccc12)C(=O)N[C@@H](Cc1c[nH]c2ccccc12)C(=O)N[C@@H](CCCNC(=N)N)C(=O)NCC(=O)N[C@@H](CCC(N)=O)C(=O)N1CCC[C@H]1C(=O)N[C@@H](CS)C(=O)N[C@@H](Cc1c[nH]c2ccccc12)C(=O)O [A5] (H-WCLWRGQPCW-OH; N-terminus assumed),EC50 fold lower than that of the native Fo alpha pheromone,[2],at least 13 fold
same,logEC50,[2],-8.637
CC(C)C[C@H](NC(=O)[C@H](CC(C)C)NC(=O)[C@H](CS)NC(=O)[C@@H](N)Cc1c[nH]c2ccccc12)C(=O)N[C@@H](CC(=O)O)C(=O)NCC(=O)N[C@@H](CCC(N)=O)C(=O)N1CCC[C@H]1C(=O)N[C@@H](CS)C(=O)N[C@@H](Cc1c[nH]c2ccccc12)C(=O)O [A6] (H-WCLLDGQPCW-OH; N-terminus and C-terminus assumed),Hillslope,[3],0.5567
same,logEC50,[3],-8.01
same,"Sup.Fig.3A Bc.Ste2 biosensor response, group mean",[3]; 10 μM,1.225
NC(N)=O [Urea],Fold increase of diploids containing Hj.Hpr2,[4],20 fold
same,Effect on abundance of diploids with Fo.Ste2,[5],did not affect
same,Effect on abundance of diploids with the control strain no_GPCR,[6],did not affect
same,Fold decrease in the abundance of diploids with Fg.Ste2,[7],0.8 fold
same,Increase of diploids containing Bb.Ste2,[8],fourfold
"QWCRIHGQSCW [Nc, alpha pheromone of Neurospora crassa]",Diploid frequency (%),[9],0.0%
same,Diploid frequency (%),[10],2.8%
same,Diploid frequency (%),[11]; [24],0.0%
same,Diploid frequency (%),[12],0.0%
same,Diploid frequency (%),[13]; [24],0.0%
same,Diploid frequency (%),[14]; [25],0.1%
same,Diploid frequency (%),[15],0.1%
same,Diploid frequency (%),[16]; [24],0.0%
same,Diploid frequency (%),[17],0.0%
same,Diploid frequency (%),[18],0.0%
"WCIQSGQPCW [A3, Fg.Ste2 - Agonist candidate from the YPL1 pheromone library]","Sup.Fig.3A Fg.Ste2 biosensor response, group mean","[19]; Control mean 1, mean of n = 4",1.455
same,"Activation of Fg.Ste2 biosensor, in words",[19]; chemically synthesized pheromone,almost no effect
"WCYRIGEPCW [Hj, alpha pheromone of Hypocrea jecorina (Trichoderma reseei)]",Diploid frequency (%),[9],0.0%
same,"Sup.Fig.7B - Hj, group mean",[4]; pH=6,0.1033
same,"Sup.Fig.7B - Hj, group mean",[4]; pH=7,0.03
same,"qPCR, Hj + Hj",[4]; ph=7,0.0033
same,Diploid frequency (%),[10],0.1%
same,Diploid frequency (%),[11],0.1%
same,Diploid frequency (%),[12],0.1%
same,Diploid frequency (%),[13],4.9%
same,Diploid frequency (%),[14],0.1%
same,Diploid frequency (%),[15],0.1%
same,Diploid frequency (%),[16],0.0%
same,Diploid frequency (%),[17],0.1%
same,"diploid frequency (%), Plates, Hj",[17],0.67% and 0.16% and 0.05% and 1.62% and 0.03% and 1.07% and 0.1% and 0.01%
same,Diploid frequency (%),[18],0.0%
"WHWLQLKPGQPMY [Sc, alpha pheromone of Saccharomyces cerevisiae]",Diploid frequency (%),[9],0.0%
same,Diploid frequency (%),[10],0.0%
same,Diploid frequency (%),[11]; [24],0.2%
same,Diploid frequency (%),[12],0.0%
same,Diploid frequency (%),[13]; [24],0.0%
same,Diploid frequency (%),[14]; [25],0.2%
same,Diploid frequency (%),[15],0.1%
same,Diploid frequency (%),[16]; [24],0.0%
same,Diploid frequency (%),[17],0.0%
same,Diploid frequency (%),[18],90.9%
WRWPCCWGQT [Scrambled],Germination of F. oxysporum microconidia (data of Sup.Fig.10),[20]; biological replicate 1 (first line),"53,95"
same,Germination of F. oxysporum microconidia (data of Sup.Fig.10),[20]; biological replicate 2 (second line),"33,33"
same,Germination of F. oxysporum microconidia (data of Sup.Fig.10),[20]; biological replicate 3 (third line),"27,4"
same,"Mean Diff, Solvent vs. peptide","[20]; Sup.Fig.10, Dunnett's multiple comparisons test, n = 3","5,543"
same,"Mean 2 (peptide), germination","[20]; Sup.Fig.10, Solvent control mean 43,77, mean of n = 3","38,23"
same,"Effect on activation of Bc.Ste2 by Bc pheromone, in words",[21],do not differ significantly from Bc alone
same,Chemotropic response in Bb germ tubes,[22],did not
same,Chemotropic response in F. oxysporum germ tubes,[23],did not
